Values joined by “and” are separate entries in the source; they are usually repeats but may differ in a detail not shown here. Equal entries are not always repeated.
System: 324938-238-R-J1-PDC complex spheroid growth, % test/control
Assay: Anticancer human tumor 324938-238-R-J1-PDC patient-derived bladder carcinoma cell line growth inhibition [AhR]
Details: for viability, T/C: stronger effect = lower value
How it was run: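 Agents were dosed in half-log steps down from roughly clinical Cmax, or from 10 microM where Cmax was unknown, alone and with AhR antagonists. Read-out: percent test/control growth of tumor spheroids containing HUVEC and MSC stromal cells.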

[1] = curve of first compound, second compound 0.1 µM
[2] = curve of first compound, second compound 0.316 µM
[3] = curve of first compound, second compound 1 µM
[4] = curve of first compound, second compound 3.16 µM
[5] = curve of first compound, second compound 10 µM
[6] = second compound 0.1 µM, first compound 0.0316 µM
[7] = second compound 0.1 µM, first compound 0.1 µM
[8] = second compound 0.1 µM, first compound 0.316 µM
[9] = second compound 0.1 µM, first compound 1 µM
[10] = second compound 0.1 µM, first compound 3.16 µM
[11] = second compound 0.1 µM, first compound 10 µM
[12] = second compound 0.316 µM, first compound 0.0316 µM
[13] = second compound 0.316 µM, first compound 0.1 µM
[14] = second compound 0.316 µM, first compound 0.316 µM
[15] = second compound 0.316 µM, first compound 1 µM
[16] = second compound 0.316 µM, first compound 3.16 µM
[17] = second compound 0.316 µM, first compound 10 µM
[18] = second compound 1 µM, first compound 0.0316 µM
[19] = second compound 1 µM, first compound 0.1 µM
[20] = second compound 1 µM, first compound 0.316 µM
[21] = second compound 1 µM, first compound 1 µM
[22] = second compound 1 µM, first compound 3.16 µM
[23] = second compound 1 µM, first compound 10 µM
[24] = second compound 3.16 µM, first compound 0.0316 µM
[25] = second compound 3.16 µM, first compound 0.1 µM
[26] = second compound 3.16 µM, first compound 0.316 µM
[27] = second compound 3.16 µM, first compound 1 µM
[28] = second compound 3.16 µM, first compound 3.16 µM
[29] = second compound 3.16 µM, first compound 10 µM
[30] = second compound 10 µM, first compound 0.0316 µM
[31] = second compound 10 µM, first compound 0.1 µM
[32] = second compound 10 µM, first compound 0.316 µM
[33] = second compound 10 µM, first compound 1 µM
[34] = second compound 10 µM, first compound 3.16 µM
[35] = second compound 10 µM, first compound 10 µM
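Also: spheroids exposed to agents for seven days before viability read.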

| SMILES | IC50 [1] [nM] | IC50 [2] [nM] | IC50 [3] [nM] | IC50 [4] [nM] | IC50 [5] [nM] | viability, T/C [6] [%] | viability, T/C [7] [%] | viability, T/C [8] [%] | viability, T/C [9] [%] | viability, T/C [10] [%] | viability, T/C [11] [%] | viability, T/C [12] [%] | viability, T/C [13] [%] | viability, T/C [14] [%] | viability, T/C [18] [%] | viability, T/C [19] [%] | viability, T/C [24] [%] | viability, T/C [25] [%] | viability, T/C [30] [%] | viability, T/C [31] [%] | other results |
| --- | --- | --- | --- | --- | --- | --- | --- | --- | --- | --- | --- | --- | --- | --- | --- | --- | --- | --- | --- | --- | --- |
| CC1(C)CCC(CN2CCN(c3ccc(C(=O)NS(=O)(=O)c4ccc(NCC5CCOCC5)c([N+](=O)[O-])c4)c(Oc4cnc5[nH]ccc5c4)c3)CC2)=C(c2ccc(Cl)cc2)C1 + Cc1cncc(-c2nc(NCCc3c[nH]c4ccccc34)c3ncn(C(C)C)c3n2)c1 | > 10000 | > 10000 | > 10000 | > 10000 | < 31.6 | 108 | 80.3 | 109 | 93 | 109 | 117 | 94.2 | 96.9 | 136 | 112 | 123 | 106 | 93.5 | 13.5 | 8.66 | viability, T/C [15]: 87.7%; viability, T/C [16]: 86.6%; viability, T/C [17]: 114%; viability, T/C [20]: 131%; viability, T/C [21]: 107%; viability, T/C [22]: 103%; viability, T/C [23]: 130%; viability, T/C [26]: 115%; viability, T/C [27]: 102%; viability, T/C [28]: 112%; viability, T/C [29]: 106%; viability, T/C [32]: 11.9%; viability, T/C [33]: 7.88%; viability, T/C [34]: 9.07%; viability, T/C [35]: 12.5% |
| Nc1ccccc1NC(=O)c1ccc(CNC(=O)OCc2cccnc2)cc1 |  |  |  |  |  |  |  |  |  |  |  |  |  |  |  |  |  |  |  |  | viability, T/C (compound 0.0316 µM): 90% and 112% and 121%; viability, T/C (compound 0.1 µM): 80.4% and 111% and 110%; viability, T/C (compound 0.316 µM): 57.2% and 107% and 97.9%; viability, T/C (compound 1 µM): 61.7% and 69% and 70.3%; viability, T/C (compound 3.16 µM): 37.1% and 43.2% and 58.1%; IC50 (curve of compound): 1310 nM and 2200 nM and 3500 nM |
| Nc1ccn(C2OC(CO)C(O)C2(F)F)c(=O)n1 (stereo unspecified) + Cc1cncc(-c2nc(NCCc3c[nH]c4ccccc34)c3ncn(C(C)C)c3n2)c1 | > 10000 | > 10000 | > 10000 | > 10000 | < 31.6 | 105 | 81.5 | 88.5 | 51.6 | 83.9 | 84.1 | 79.4 | 61.6 | 79.2 | 95.1 | 65.9 | 95.2 | 74.3 | 45.5 | 53.7 | viability, T/C [15]: 87.2%; viability, T/C [16]: 93.3%; viability, T/C [17]: 111%; viability, T/C [20]: 79.8%; viability, T/C [21]: 84.1%; viability, T/C [22]: 69.6%; viability, T/C [23]: 84.5%; viability, T/C [26]: 119%; viability, T/C [27]: 84.3%; viability, T/C [28]: 120%; viability, T/C [29]: 72.5%; viability, T/C [32]: 49.7%; viability, T/C [33]: 49.3%; viability, T/C [34]: 62.2%; viability, T/C [35]: 62.7% |
| O=C(c1cc(Cc2n[nH]c(=O)c3ccccc23)ccc1F)N1CCN(C(=O)C2CC2)CC1 + Cc1cncc(-c2nc(NCCc3c[nH]c4ccccc34)c3ncn(C(C)C)c3n2)c1 | > 10000 | > 10000 | > 10000 | > 10000 | < 31.6 | 106 | 96.6 | 78.3 | 71.6 | 72.5 | 79.5 | 97.2 | 115 | 105 | 78.4 | 106 | 78.4 | 66.2 | 5.77 | 4.45 | viability, T/C [15]: 97.2%; viability, T/C [16]: 92.3%; viability, T/C [17]: 74.4%; viability, T/C [20]: 91%; viability, T/C [21]: 61.5%; viability, T/C [22]: 72%; viability, T/C [23]: 59.6%; viability, T/C [26]: 84.3%; viability, T/C [27]: 68.2%; viability, T/C [28]: 77.7%; viability, T/C [29]: 67.6%; viability, T/C [32]: 2.26%; viability, T/C [33]: 4.78%; viability, T/C [34]: 4.97%; viability, T/C [35]: 8.77% |

Further lines, with some results ahead:

| IC50 [1] [nM] | IC50 [2] [nM] | IC50 [3] [nM] | IC50 [4] [nM] | IC50 [5] [nM] | SMILES | viability, T/C [6] [%] | viability, T/C [7] [%] | viability, T/C [8] [%] | viability, T/C [9] [%] | viability, T/C [10] [%] | viability, T/C [11] [%] | viability, T/C [12] [%] | viability, T/C [13] [%] | viability, T/C [14] [%] | viability, T/C [18] [%] | viability, T/C [19] [%] | viability, T/C [24] [%] | viability, T/C [25] [%] | viability, T/C [30] [%] | viability, T/C [31] [%] | other results |
| --- | --- | --- | --- | --- | --- | --- | --- | --- | --- | --- | --- | --- | --- | --- | --- | --- | --- | --- | --- | --- | --- |
| > 10000 | > 10000 | > 10000 | > 10000 | > 10000 | COc1ccc([C@@H](O)c2cc(-c3ncnc4cc(N5CCOCC5)ccc34)c(F)cc2Cl)nn1 + CC(CO)NC(=O)c1cc(-c2ccc(Cl)cc2)nn(-c2cnn(C)c2)c1=O | 99.4 | 110 | 90.2 | 81.8 | 78.5 | 66.5 | 89.4 | 93.4 | 96.8 | 88.8 | 88.7 | 75.2 | 71.1 | 70.7 | 65.5 | viability, T/C [15]: 76.4%; viability, T/C [16]: 71.6%; viability, T/C [17]: 59.5%; viability, T/C [20]: 91.6%; viability, T/C [21]: 70.6%; viability, T/C [22]: 59.5%; viability, T/C [23]: 60.1%; viability, T/C [26]: 68.3%; viability, T/C [27]: 60%; viability, T/C [28]: 63.6%; viability, T/C [29]: 51.8%; viability, T/C [32]: 63.8%; viability, T/C [33]: 56.1%; viability, T/C [34]: 55%; viability, T/C [35]: 55.8% |
| 27.7 | 20.4 | 21.9 | 14.2 | 16.8 | CC[C@@]1(O)C(=O)OCc2c1cc1n(c2=O)Cc2cc3c(CN(C)C)c(O)ccc3nc2-1 + CC(CO)NC(=O)c1cc(-c2ccc(Cl)cc2)nn(-c2cnn(C)c2)c1=O | 44.6 | 16.7 |  |  |  |  | 36.5 | 18.1 |  | 39.4 | 17.6 | 32.4 | 21 | 40.4 | 22.6 | viability, T/C (second compound 0.1 µM, first compound 0.000316 µM): 106%; viability, T/C (second compound 0.1 µM, first compound 0.001 µM): 103%; viability, T/C (second compound 0.1 µM, first compound 0.00316 µM): 89.7%; viability, T/C (second compound 0.1 µM, first compound 0.01 µM): 80.2%; viability, T/C (second compound 0.316 µM, first compound 0.000316 µM): 102%; viability, T/C (second compound 0.316 µM, first compound 0.001 µM): 106%; viability, T/C (second compound 0.316 µM, first compound 0.00316 µM): 100%; viability, T/C (second compound 0.316 µM, first compound 0.01 µM): 72.6%; viability, T/C (second compound 1 µM, first compound 0.000316 µM): 87.4%; viability, T/C (second compound 1 µM, first compound 0.001 µM): 97.9%; viability, T/C (second compound 1 µM, first compound 0.00316 µM): 89.6%; viability, T/C (second compound 1 µM, first compound 0.01 µM): 73%; viability, T/C (second compound 3.16 µM, first compound 0.000316 µM): 74%; viability, T/C (second compound 3.16 µM, first compound 0.001 µM): 85.4%; viability, T/C (second compound 3.16 µM, first compound 0.00316 µM): 76.3%; viability, T/C (second compound 3.16 µM, first compound 0.01 µM): 57.2%; viability, T/C (second compound 10 µM, first compound 0.000316 µM): 69.4%; viability, T/C (second compound 10 µM, first compound 0.001 µM): 69.7%; viability, T/C (second compound 10 µM, first compound 0.00316 µM): 61.4%; viability, T/C (second compound 10 µM, first compound 0.01 µM): 59.6% |
| 391 | 303 | 309 | 249 | 287 | COc1cc(C2c3cc4c(cc3C(OC3OC5COC(C)OC5C(O)C3O)C3COC(=O)C23)OCO4)cc(OC)c1O (stereo unspecified) + Cc1ccccc1N=Nc1ccc(NC(=O)c2ccnn2C)c(C)c1 | 89.2 | 79.3 | 52.3 | 33.4 | 28 | 19.5 | 78.4 | 87.8 | 48.7 | 79.2 | 75.5 | 68.2 | 61.6 | 70.5 | 65.5 | viability, T/C [15]: 33%; viability, T/C [16]: 27%; viability, T/C [17]: 16.9%; viability, T/C [20]: 47.2%; viability, T/C [21]: 29.6%; viability, T/C [22]: 23.7%; viability, T/C [23]: 16.4%; viability, T/C [26]: 46.4%; viability, T/C [27]: 33.3%; viability, T/C [28]: 28%; viability, T/C [29]: 16%; viability, T/C [32]: 43.3%; viability, T/C [33]: 38.7%; viability, T/C [34]: 31.8%; viability, T/C [35]: 18.5% |
